We go through 1 compound from US11912682B2, “Isoindolinone compounds” (Monte Rosa Therapeutics, Inc., priority 2021, dated 2024).

In data set [1] the test system is NCI-H1155, ABC-1 and EBC-1, NCI-H2023. Kind of data set: viability assay (CellTiter-Glo) in N-Myc high and N-Myc low NSCLC cell lines. The data set is classed as cell-based. As to conditions: 72 hours. Here is the method:
The anti-proliferative activity of compound 10 was tested on representative N-Myc high and N-Myc low cell lines (NCI-H1155, ABC-1 and EBC-1, NCI-H2023, respectively) following treatment with compound for 72 hours. Cells were sub-cultures as recommended by the providers (ATCC, DSMZ) and incubated at 37° C., 5% CO2. All cells were authenticated and confirmed by Short Tandem Repeat (STR) profiling. Briefly, cells were seeded to the appropriate density to allow logarithmic growth over the assay period in 96-well opaque-walled clear bottom plates (from Corning, Cat. No. 3903, Lot. No. 16419061; 100 μL total volume) and incubated overnight. […] Cell viability was assessed using the CellTiter-Glo assay kit as recommended by the Manufacturer (Promega, Cat. No. G7558, Lot. No. 0000385738) and measurements performed on the EnSpire multimode plate reader (Perkin Elmer). EC50 values were determined using Prism8 (GraphPad) and the asymmetric (five-parameter) equation and least squares fit. GSPT1 levels were assessed in the NCI-H1155 and ABC-1 cell lines by densitometry analysis following treatment with compound 10 for 6 hours and western blotting analysis. […] For chemiluminescence and colorimetric signals “optimal automatic exposure” settings (3×3 binning) were employed while fluorescence was detected using 1-4 seconds exposure time to achieve best GAPDH signals and avoid overexposure. […]
A general note: ATP-based viability assays read luminescence as a measure of living cells.

The test system of data set [2] is human cell line NCI-H1770. Kind of data set: N-Myc-driven mouse xenograft model, NCI-H1770 (FIG. 3C). It counts as in vivo.
In a further data set the target is GSPT1 (Homo sapiens (Human), UniProt P15170+Q96SW2). Kind of data set: GSPT1 levels by western blotting and densitometry in NCI-H1155 and ABC-1 cell lines. The data set is classed as cell-based. As to conditions: for DC50: six hours. The protocol:
The anti-proliferative activity of compound 10 was tested on representative N-Myc high and N-Myc low cell lines (NCI-H1155, ABC-1 and EBC-1, NCI-H2023, respectively) following treatment with compound for 72 hours. Cells were sub-cultures as recommended by the providers (ATCC, DSMZ) and incubated at 37° C., 5% CO2. All cells were authenticated and confirmed by Short Tandem Repeat (STR) profiling. Briefly, cells were seeded to the appropriate density to allow logarithmic growth over the assay period in 96-well opaque-walled clear bottom plates (from Corning, Cat. No. 3903, Lot. No. 16419061; 100 μL total volume) and incubated overnight. Compound 10 and DMSO control were subsequently dispensed to the plates using HPD300 and a 9 data-point titration curve with concentrations ranging from 30 μM to 0.1 nM. Dilutions were prepared fresh prior to the assay using a 10 mM DMSO stock. Final DMSO concentration was 0.5%. The plates were incubated for 3 days at 5% CO2, 37° C. Cell viability was assessed using the CellTiter-Glo assay kit as recommended by the Manufacturer (Promega, Cat. No. G7558, Lot. No. 0000385738) and measurements performed on the EnSpire multimode plate reader (Perkin Elmer). EC50 values were determined using Prism8 (GraphPad) and the asymmetric (five-parameter) equation and least squares fit. GSPT1 levels were assessed in the NCI-H1155 and ABC-1 cell lines by densitometry analysis following treatment with compound 10 for 6 hours and western blotting analysis. […] Membranes were then transferred between two clean sheets of plastic and chemiluminescence (GSPT1), Dylight680 fluorescence (GAPDH) as well as colorimetric (molecular weight standard) signals were detected using a Chemidoc MP imaging system (BioRad 17001402). For chemiluminescence and colorimetric signals “optimal automatic exposure” settings (3×3 binning) were employed while fluorescence was detected using 1-4 seconds exposure time to achieve best GAPDH signals and avoid overexposure. […]
A general note: A western blot detects proteins with antibodies after separation by electrophoresis.

Sequence of GSPT1 (P15170 whole entry): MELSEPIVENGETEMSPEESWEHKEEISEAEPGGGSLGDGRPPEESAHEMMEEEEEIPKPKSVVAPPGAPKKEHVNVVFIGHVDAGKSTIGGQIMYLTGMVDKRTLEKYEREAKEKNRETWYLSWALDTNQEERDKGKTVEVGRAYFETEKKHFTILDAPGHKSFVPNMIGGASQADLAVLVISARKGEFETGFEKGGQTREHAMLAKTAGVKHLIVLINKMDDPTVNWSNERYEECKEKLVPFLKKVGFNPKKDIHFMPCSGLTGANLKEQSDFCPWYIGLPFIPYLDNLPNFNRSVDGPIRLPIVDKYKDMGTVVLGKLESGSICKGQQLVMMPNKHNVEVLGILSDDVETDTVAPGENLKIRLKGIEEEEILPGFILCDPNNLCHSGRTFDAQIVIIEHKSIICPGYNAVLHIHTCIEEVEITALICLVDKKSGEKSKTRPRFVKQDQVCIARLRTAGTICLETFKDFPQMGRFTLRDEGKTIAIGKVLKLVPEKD
Sequence of GSPT1 (Q96SW2 whole entry): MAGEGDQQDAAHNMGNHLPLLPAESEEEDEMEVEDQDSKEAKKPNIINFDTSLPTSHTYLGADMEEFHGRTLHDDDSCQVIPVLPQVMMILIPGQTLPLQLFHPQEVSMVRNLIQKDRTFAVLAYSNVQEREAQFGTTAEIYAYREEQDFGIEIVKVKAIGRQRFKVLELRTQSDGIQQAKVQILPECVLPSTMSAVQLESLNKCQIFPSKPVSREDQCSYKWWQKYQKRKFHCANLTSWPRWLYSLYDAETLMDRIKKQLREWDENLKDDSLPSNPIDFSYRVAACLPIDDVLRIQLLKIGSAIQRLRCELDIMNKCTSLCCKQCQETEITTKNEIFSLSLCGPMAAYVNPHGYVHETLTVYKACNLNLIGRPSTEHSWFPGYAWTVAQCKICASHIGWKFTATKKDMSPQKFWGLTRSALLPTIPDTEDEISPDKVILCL
Sequence of GSPT1 (Q16531 2-1140 partner): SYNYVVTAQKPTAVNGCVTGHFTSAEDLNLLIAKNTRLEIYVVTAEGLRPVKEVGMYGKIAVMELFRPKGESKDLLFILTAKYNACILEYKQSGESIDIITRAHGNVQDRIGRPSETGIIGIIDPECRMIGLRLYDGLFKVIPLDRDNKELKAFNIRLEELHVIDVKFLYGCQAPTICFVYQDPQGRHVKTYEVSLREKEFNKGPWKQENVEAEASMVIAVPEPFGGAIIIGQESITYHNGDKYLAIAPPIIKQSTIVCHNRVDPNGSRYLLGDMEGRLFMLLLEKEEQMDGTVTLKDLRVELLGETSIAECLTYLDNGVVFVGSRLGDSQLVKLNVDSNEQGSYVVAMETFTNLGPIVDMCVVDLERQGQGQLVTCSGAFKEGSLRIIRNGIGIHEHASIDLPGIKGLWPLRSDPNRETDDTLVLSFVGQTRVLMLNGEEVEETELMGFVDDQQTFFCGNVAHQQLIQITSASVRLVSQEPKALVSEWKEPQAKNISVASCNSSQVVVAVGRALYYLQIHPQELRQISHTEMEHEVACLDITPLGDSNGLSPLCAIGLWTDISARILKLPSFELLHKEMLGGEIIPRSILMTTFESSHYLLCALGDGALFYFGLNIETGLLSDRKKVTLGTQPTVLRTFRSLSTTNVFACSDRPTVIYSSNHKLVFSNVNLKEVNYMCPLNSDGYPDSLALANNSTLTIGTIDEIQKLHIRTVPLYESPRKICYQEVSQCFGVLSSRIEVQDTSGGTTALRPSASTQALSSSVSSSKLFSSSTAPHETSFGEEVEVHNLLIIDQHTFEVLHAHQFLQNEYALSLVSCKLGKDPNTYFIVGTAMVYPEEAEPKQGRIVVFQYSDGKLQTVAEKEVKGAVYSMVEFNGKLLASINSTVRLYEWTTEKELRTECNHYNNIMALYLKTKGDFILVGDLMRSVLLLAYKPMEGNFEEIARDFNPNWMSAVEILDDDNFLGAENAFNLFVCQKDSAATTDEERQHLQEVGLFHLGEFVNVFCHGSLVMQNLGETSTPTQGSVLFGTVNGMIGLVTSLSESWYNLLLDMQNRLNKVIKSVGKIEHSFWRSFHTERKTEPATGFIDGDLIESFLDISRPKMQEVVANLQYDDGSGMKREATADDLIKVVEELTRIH

In the case of `Cc1ccc(NC(=O)OCc2ccc3c(c2)C(=O)N(C2CCC(=O)NC2=O)C3)cc1Cl` (centres unmarked) [Compound 10], the “anti-proliferative sensitivity (FIG. 2A)” value in data set [1] is on record as “sensitivity correlated with the expression of N-Myc”. The “tumor size (tumor volume)” value in data set [2] (3 mg/kg PO once daily) was “tumor size decreased and remained so until the end of the study”; in data set [2] (6 mg/kg PO five days on and nine days off), “tumor size decreased and remained so until the end of the study”. Moreover, the body weight result in data set [2] (oral administration) is given as “no body weight loss”. Besides, the “effect on tumor growth (tumor volume)” value in data set [2] (oral administration) is reported as “tumor growth inhibition”. For the same compound, the figures for the DC50 at GSPT1 (ABC-1 cells) and at GSPT1 (NCI-H1155 cells) were 0.022 µM and 0.003 µM, respectively. Moreover, on GSPT1 (high N-Myc NCI-H1155 and ABC-1 cells, six hours of treatment), the GSPT1 degradation result is given as “Complete degradation of GSPT1”.
